Data: patent US8536222B2, “Addition compounds of guanidinoacetic acid” (AlzChem AG, priority 2005, dated 2013)

Tests used:
[1] = tested on: fattened chicken; test: feed for fattened chicken, 42 day fattening period; type: in vivo; details: 0.2% by weight in air-dried feed
Procedure: • 2.1 A formulation consisting of 5000 mg guanidinoacetic acid malate and 5000 mg inulin was introduced into a typical formulation of feed pellets as a feed supplement for horses. • 2.2 A formulation consisting of 7000 mg guanidinoacetic acid lactate, 750 mg carnitine tartrate, 100 mg sucrose stearate, 160 mg talcum and 1090 mg fructose was introduced into the basic bulk for dog biscuits. • 2.3 The following formulation was introduced homogenously as a master batch into a commercially canned cat food mixture: 3000 mg guanidinoacetic acid citrate, 3000 mg creatine, 40 mg magnesium stearate, 25 mg carboxymethyl-cellulose and […] lactose. • 2.4 Feed for fattened chicken
In addition the consumption of feed decreased by about 6% compared to previous feeding methods.

[2] = 1 g in water at 15° C.; cited from earlier work
[3] = tested on: creatine content in muscles; details: rats, diets containing about 0.36 g/kg; cited from earlier work
[4] = solubility in water; type: physicochemical; details: water at 20° C.

## N=C(N)NCC(=O)O.O=C(O)CCCCC1CCSS1 (stereo not shown) [guanidinoacetic acid lipoate]
[1]
  decrease of consumption of feed compared to previous feeding methods: about 6%
  increase of end weight compared to previous feeding methods without guanidinoacetic acid: 5%
  meat quality: improved quality
  nature of the increase in weight: solely by a meat increase

## N=C(N)NCC(=O)O [guanidinoacetic acid]
[2]
  solubility in water (ml water needed for 1 g): 278 mL
[3]
  increase of creatine content in muscles compared to the comparison group: 39%
[4]
  dissolves in water: very poorly
